Source: publication PMC9503212, “A High-Affinity ^64Cu-Labeled Ligand for PET Imaging of Hepsin: Design, Synthesis, and Characterization” (Pharmaceuticals, 2022)

How the values were obtained:
matriptase = biological target: T1, matriptase (Homo sapiens, UniProt Q9Y5Y6); assay: In vitro binding assay (fluorogenic BOC–QAR–AMC substrate), matriptase; assay type: biochemical; conditions: 0.3 nM enzyme, 150 μM substrate, Ki by Cheng and Prusoff from IC50, three determinations
T1 sequence (Q9Y5Y6 1-855): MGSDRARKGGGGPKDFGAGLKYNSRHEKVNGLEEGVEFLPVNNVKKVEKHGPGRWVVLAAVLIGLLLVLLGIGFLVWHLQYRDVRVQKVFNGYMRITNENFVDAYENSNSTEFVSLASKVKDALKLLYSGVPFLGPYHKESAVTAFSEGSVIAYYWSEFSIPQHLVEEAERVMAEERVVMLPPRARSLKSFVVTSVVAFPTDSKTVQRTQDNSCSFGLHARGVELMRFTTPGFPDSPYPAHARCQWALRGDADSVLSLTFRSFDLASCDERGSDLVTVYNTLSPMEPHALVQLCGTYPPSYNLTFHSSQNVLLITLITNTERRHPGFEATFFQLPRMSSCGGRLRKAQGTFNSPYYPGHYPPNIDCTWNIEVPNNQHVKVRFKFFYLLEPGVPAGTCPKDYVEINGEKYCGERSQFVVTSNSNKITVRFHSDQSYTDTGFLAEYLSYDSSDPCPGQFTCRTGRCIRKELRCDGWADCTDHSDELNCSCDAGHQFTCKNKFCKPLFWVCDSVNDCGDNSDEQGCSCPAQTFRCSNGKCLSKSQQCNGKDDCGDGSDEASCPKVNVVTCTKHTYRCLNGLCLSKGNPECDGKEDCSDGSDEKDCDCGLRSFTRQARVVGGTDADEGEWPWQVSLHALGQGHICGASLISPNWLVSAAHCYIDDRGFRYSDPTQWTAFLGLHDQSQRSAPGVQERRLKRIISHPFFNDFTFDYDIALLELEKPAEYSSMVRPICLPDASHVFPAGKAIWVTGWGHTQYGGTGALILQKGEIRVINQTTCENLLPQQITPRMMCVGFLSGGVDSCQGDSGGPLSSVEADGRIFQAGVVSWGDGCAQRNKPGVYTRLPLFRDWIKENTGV
Protocol: (§1) Ligands (0.03 nM–30 µM) were diluted in DMSO (2% final concentration) and mixed with either activated hepsin or matriptase in 96-well plates. The final assay concentration for both hepsin and matriptase in TNC buffer was 0.3 nM. After an incubation period of 30 min at 37 °C, BOC–QAR–AMC substrate (R&D Systems) was added to hepsin and matriptase assay mixtures. The final substrate concentration was 150 μM in a final reaction volume of 100 μL.
(§2) Changes in fluorescence (excitation at 380 nm and emission at 460 nm) were measured at room temperature over 2 h in a BioTek Synergy two-plate reader (Agilent Technologies). Using the GraphPad Prism version 6.02 software (San Diego, CA, USA), a non-linear curve fit was performed to determine the inhibitor IC50s from a plot of the mean reaction velocity versus the inhibitor concentration. The IC50 values represent the average of three experimental determinations (Figure S1). Ki values were calculated using the Cheng and Prusoff equation (Ki = IC50/(1 + [S]/Km)).

Recombinant hepsin = biological target: T2, Recombinant hepsin (Homo sapiens, UniProt P05981); assay: In vitro binding assay (fluorogenic BOC–QAR–AMC substrate), hepsin; assay type: biochemical; conditions: for Ki: 0.3 nM enzyme, 150 μM substrate, Ki by Cheng and Prusoff from IC50, three determinations; for Matriptase/ Hepsin (hepsin selectivity, ratio of Ki values): ratio of Ki values for matriptase and hepsin
T2 construct: purchased R&D Systems
Protocol: Recombinant hepsin (R&D Systems, Minneapolis, MN, USA) was diluted 5.5-fold in TNC buffer (25 mM Tris-HCl, 150 mM NaCl, 5 mM CaCl2, 0.01% Triton X-100, pH 8) and incubated at 37 °C. After 24 h, hepsin was diluted in glycerol to 50%. The stock solution (1.2 μM) was stored at −81 °C and diluted in TNC buffer before use.
as §1, §2

hepsin = conditions: cited from earlier work

T2 sequence (P05981 163-417 limits assumed): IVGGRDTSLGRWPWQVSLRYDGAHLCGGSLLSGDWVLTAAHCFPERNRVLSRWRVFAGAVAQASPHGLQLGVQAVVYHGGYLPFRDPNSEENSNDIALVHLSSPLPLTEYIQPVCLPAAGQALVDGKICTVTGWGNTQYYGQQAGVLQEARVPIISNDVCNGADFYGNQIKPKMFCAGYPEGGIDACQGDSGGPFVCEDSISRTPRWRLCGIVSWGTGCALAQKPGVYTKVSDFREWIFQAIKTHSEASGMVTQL
T2 sequence (P05981 1-162 partner limits assumed): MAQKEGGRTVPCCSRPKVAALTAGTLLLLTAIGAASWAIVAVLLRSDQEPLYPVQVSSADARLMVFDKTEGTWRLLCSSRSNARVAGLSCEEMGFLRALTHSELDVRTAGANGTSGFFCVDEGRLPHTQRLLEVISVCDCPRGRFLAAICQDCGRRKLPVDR

Compound | Ki (matriptase) [nM] | Ki (Recombinant hepsin) [nM] | Matriptase/ Hepsin (hepsin selectivity, ratio of Ki values) (Recombinant hepsin) | hepsin selectivity (ratio of Ki values for matriptase and hepsin), previous reported value (hepsin) | Ki (hepsin; read-out: Ki hepsin, previous reported value) [nM]
^natCu-DOTA-conjugated 1-amino-N-(1-((5-guanidino-1-oxo-1-(thiazol-2-yl)pentan-2-yl)amino)-4-methyl-1-oxopentan-2-yl)-3,6,9,12-tetraoxapentadecan-15-amide [Ligand 3A] | 249 ± 12.3 | 15 ± 0.6 | 16.6 |  | 
^natGa-DOTA-conjugated 1-amino-N-(1-((5-guanidino-1-oxo-1-(thiazol-2-yl)pentan-2-yl)amino)-4-methyl-1-oxopentan-2-yl)-3,6,9,12-tetraoxapentadecan-15-amide [Ligand 2B] | 68.2 ± 2.4 | 5.7 ± 0.2 | 12.0 |  | 
CC(C)C[C@H](NC(=O)CCc1cn(CCOCCOCCF)nn1)C(=O)NC(CCCNC(=N)N)C(=O)c1nccs1 (stereo partly drawn) [Ligand 1A, (2S)-2-(3-(1-(2-(2-(2-Fluoroethoxy)ethoxy)ethyl)-1H-1,2,3-triazol-4-yl)propanamido)-N-(5-guanidino-1-oxo-1-(thiazol-2-yl)pentan-2-yl)-4-methylpentanamide] | 54.5 ± 4.9 | 0.9 ± 0.1 | 60.6 |  | 
^natGa-DOTA-conjugated 1-amino-N-(1-((5-guanidino-1-oxo-1-(thiazol-2-yl)pentan-2-yl)amino)-4-methyl-1-oxopentan-2-yl)-3,6,9,12-tetraoxapentadecan-15-amide [Ligand 2A] | 166 ± 8.2 | 14.3 ± 1.2 | 11.6 |  | 
CC(C)C[C@H](NC(=O)CCc1cn(CCOCCOCCF)nn1)C(=O)NC(CCCNC(=N)N)C(=O)c1nccs1 (stereo partly drawn) [Ligand 1B, (2S)-2-(3-(1-(2-(2-(2-Fluoroethoxy)ethoxy)ethyl)-1H-1,2,3-triazol-4-yl)propanamido)-N-(5-guanidino-1-oxo-1-(thiazol-2-yl)pentan-2-yl)-4-methylpentanamide] | 20 ± 0.6 | 0.5 ± 0.1 | 40.0 |  | 
^natCu-DOTA-conjugated 1-amino-N-(1-((5-guanidino-1-oxo-1-(thiazol-2-yl)pentan-2-yl)amino)-4-methyl-1-oxopentan-2-yl)-3,6,9,12-tetraoxapentadecan-15-amide [Ligand 3B] | 120 ± 3.5 | 5.1 ± 0.3 | 23.5 |  | 
CC(=O)N[C@@H](CC(C)C)C(=O)NC(CCCNC(=N)N)C(=O)c1nccs1 (some centres unmarked) [Ac–Leu–Arg–kt, reference compound] | 56.5 ± 2.7 | 7.8 ± 2.8 | 7.2 | 14.9 | 22.4 ± 0.5
